{"source": "patent US4503060A", "about": "“3-Imino-3H-dibenzo-[c,f]-imidazo-[1,5-a]azepine pharmaceuticals” (Boehringer Ingelheim KG, priority 1981, dated 1985)", "key": {"[1]": {"tested_on": "passive cutaneous anaphylaxis (PCA)", "assay": "passive cutaneous anaphylaxis (PCA) in rats after passive sensitization with IgE antibodies and antigen provocation", "format": "in vivo", "details": "po; Rat", "description": "(a) Tests on allergized rats were carried out after passive sensitization of the animals with IgE antibodies and subsequent antigen provocation. In this way, passive cutaneous anaphylaxis (PCA) was produced (Goose et al [1969]: Immunology 16, 749)."}, "histamine wheal": {"tested_on": "histamine wheal", "assay": "histamine wheal (antihistaminic activity) in rats, Evans Blue extravasation", "format": "in vivo", "source_text": "(b) Antihistaminic activity:\nThe results were quantified by measuring the wheal after extravasation of Evans Blue dye into the skin."}, "in vivo": {"assay": "in vivo", "details": "mouse, po"}}}
{"smiles": "Br.Cn1cc2n(c1=N)-c1ccccc1Cc1ccccc1-2", "note": "[Example 2, 2-Methyl-3-imino-2,3-dihydro-9H-dibenz-[c,f]-imidazo-[1,5-a]-azepine hydrobromide]", "values": [{"measurement": "ED50", "setting": "[1]", "value": 1.1, "unit": "mg/kg"}, {"measurement": "Histamine Wheal (rat) i.v.", "setting": "histamine wheal; i.v.", "value": 0.07}, {"measurement": "Histamine Wheal (rat) p.o.", "setting": "histamine wheal; p.o.", "value": 2.7}, {"measurement": "LD50", "setting": "in vivo", "value": 280, "unit": "mg/kg"}]}
